From patent US20220213341A1, “COLORED RESIN PARTICLE DISPERSION, INK, INK SET, INK JET TEXTILE PRINTING METHOD, MANUFACTURING METHOD OF OIL-SOLUBLE DYE, AND PRINTED TEXTILE PRODUCT” (FUJIFILM CORPORATION, priority 2019, published 2022)
Each block holds one compound with its values, some of them ahead of it.

Assay: MEK solubility of the dyes
Assay type: physicochemical
Settings: solubility in methyl ethyl ketone at 20° C.
Description: In the present disclosure, the “oil-soluble dye” means a dye having a solubility of 5 mass % or greater in methyl ethyl ketone at 20° C. (hereinafter, also referred to as “MEK solubility”).

SMILES: CCCCC(CC)COCCS(=O)(=O)c1ccc(/N=N/c2c(S(=O)(=O)O)cc3cc(S(=O)(=O)O)c(/N=N/c4ccc(S(=O)(=O)CCOCC(CC)CCCC)cc4)c(O)c3c2N)cc1 (stereo not drawn) [d-2]
MEK Solubility: 10 mass %

SMILES: CCCCCCCCCCCCSCCS(=O)(=O)c1ccc(/N=N/c2c(S(=O)(=O)O)cc3cc(S(=O)(=O)O)c(/N=N/c4ccc(S(=O)(=O)CCSCCCCCCCCCCCC)cc4)c(O)c3c2N)cc1 [d-3]
MEK Solubility: 10 mass %

SMILES: CCCCC(CC)COCCCNCCS(=O)(=O)c1ccc(/N=N/c2c(S(=O)(=O)O)cc3cc(S(=O)(=O)O)c(/N=N/c4ccc(S(=O)(=O)CCNCCCOCC(CC)CCCC)cc4)c(O)c3c2N)cc1 (stereo not drawn) [d-4]
MEK Solubility: 10 mass %

The remaining lines, values ahead:

MEK Solubility: 7 mass %
SMILES: CC(C)CNCCS(=O)(=O)c1ccc(/N=N/c2c(S(=O)(=O)O)cc3cc(S(=O)(=O)O)c(/N=N/c4ccc(S(=O)(=O)CCNCC(C)C)cc4)c(O)c3c2N)cc1 [d-5]

MEK Solubility: 10 mass %
SMILES: CC(C)(C)CC(C)(C)NCCS(=O)(=O)c1ccc(/N=N/c2c(S(=O)(=O)O)cc3cc(S(=O)(=O)O)c(/N=N/c4ccc(S(=O)(=O)CCNC(C)(C)CC(C)(C)C)cc4)c(O)c3c2N)cc1 [d-6]

MEK Solubility: 7 mass %
SMILES: CCCCN(CCCC)CCS(=O)(=O)c1ccc(/N=N/c2c(S(=O)(=O)O)cc3cc(S(=O)(=O)O)c(/N=N/c4ccc(S(=O)(=O)CCN(CCCC)CCCC)cc4)c(O)c3c2N)cc1 [d-7]

MEK Solubility: 10 mass %
SMILES: CCCCCCN(CCCCCC)CCS(=O)(=O)c1ccc(/N=N/c2c(S(=O)(=O)O)cc3cc(S(=O)(=O)O)c(/N=N/c4ccc(S(=O)(=O)CCN(CCCCCC)CCCCCC)cc4)c(O)c3c2N)cc1 [d-8]

MEK Solubility: 10 mass %
SMILES: CCCCCCCCN(CCCCCCCC)CCS(=O)(=O)c1ccc(/N=N/c2c(S(=O)(=O)O)cc3cc(S(=O)(=O)O)c(/N=N/c4ccc(S(=O)(=O)CCN(CCCCCCCC)CCCCCCCC)cc4)c(O)c3c2N)cc1 [d-9]
